From paper PMC9501768, “A New Class of Tunable Acid-Sensitive Linkers for Native Drug Release Based on the Trityl Protecting Group” (Bioconjugate Chemistry, 2022)
Read-outs that look alike come from different tables or passages of the source.

Experiments:
[1] = Release of native API from API-linker construct in buffer (UHPLC, first-order fit); type: physicochemical
Protocol: Release of DMXAA-amine 1 from the linker construct 12 (method described in S3.1) was measured at 37 °C for 24 h. At set time points, the concentration of the native compound 1 in a buffer of different pH values was measured by ultrahigh performance liquid chromatography (UHPLC) as shown in Figure 3.
The half-life values (t1/2) were determined from the slope of the first-order kinetic curves fitted through the release curve and are shown in Table 2. Details are provided in Section S3 of the Supporting Information. […]
S3: In vitro release protocol and stability control
S3.1 Release of API from API-linker construct
API-linker constructs 12-16, 17 and 18 were dissolved in DMSO at 1 mg/mL. This was then further diluted 10x in 20 mM sodium phosphate buffer 130 mM NaCl pH 7.4, 100 mM sodium citrate buffer 50 mM NaCl pH 6.5, 20 mM ammonium acetate 130 mM NaCl pH 5.0 or if needed 100 mM sodium phosphate buffer 50 mM NaCl pH 3.0. These dilutions were incubated at 37°C in the sample tray and at different timepoints, the concentration of free API 1, 2, or 3 was measured on a H-class UPLC system (Waters) (Figure S7 and S8)
Figure S 7: Chromatogram of 15 at 37°C, pH 7.4 t=0 hours
(1 picture or pasted object on this page, not shown here)
Figure S 8: Chromatogram of 15 at 37°C, pH 7.4, t= 12 hours […]
injection volume, 30 °C column temperature. Run with the following gradient: […]
Time (min) Flow rate %A %B
With A: 25 mM Ammonium acetate buffer pH 5.0 and B: acetonitrile.
2: Acquity HSS T3 1.7 μm, 50 x 2.1 mm column for 18 at 275 nm, 5.0 µL injection volume, 30 °C column temperature. Run with the following gradient: […]
Time (min) Flow rate % A % B
With A: phosphate buffer pH 2.5 and B: methanol.
3: Acquity BEH C18 1.7 μm, 50 x 2.1 mm for 18 at 233 nm, 2.0 µL injection volume, 30 °C column […]
With A: 10 mM ammonium bicarbonate pH 9.6 and B: acetonitrile.
Measured concentrations were plotted using GraphPad Prism 9 and fitted based on first order kinetics.
All fitted lines complied with an R2>0.95. This gave the half-life and plateau when this was not reached within the measured timeframe. […]
Size of all particles were confirmed to be between 55 and 70 nm.

[2] = as above; type: physicochemical; settings: pH 5.0, 37 °C
[3] = set-up: method as in PMID 14644; settings: doxorubicin amine nitrogen bound to trityl; cited from earlier work
[4] = ammonium acetate buffer, pH 5, API-trityl linker construct in buffer, pH 5.0, 37 °C, read-out: t1/2 pH 5.0 (converted)
[5] = sodium citrate buffer, pH 6.5, API-trityl linker construct in buffer, pH 6.5, 37 °C, read-out: t1/2 pH 6.5 (converted)
[6] = sodium phosphate buffer, pH 7.4, API-trityl linker construct in buffer, pH 7.4, 37 °C, values for 17 are estimations (doxorubicin precipitation), read-out: t1/2 pH 7.4 (converted)

| Structure (SMILES) | half-life at 0.1 mg/mL [1, 4] [h] | half-life at 0.1 mg/mL [1, 5] [h] | half-life at 0.1 mg/mL [1, 6] [h] | also measured |
| --- | --- | --- | --- | --- |
| COc1cccc2c1C(=O)c1c(O)c3c(c(O)c1C2=O)C[C@@](O)(C(=O)CO)C[C@@H]3O[C@H]1C[C@H](N)[C@H](O)[C@H](C)O1 [compound 2, doxorubicin, reference compound] | < 1 | – | – | – |
| Nc1ccn([C@@H]2O[C@H](CO)[C@@H](O)C2(F)F)c(=O)n1 [compound 3, gemcitabine] | – | – | – | release at pH 5.0 within 72 h [2]: no detectable release |
| C=C(C)C(=O)NCCCNC(=O)c1cccc(C(Nc2ccc(CC(=O)[O-])c3oc4c(C)c(C)ccc4c(=O)c23)(c2ccc(OC)cc2)c2ccc(OC)cc2)c1.[Li+] [compound 12] | 1.8 ± 0.1 | 83 ± 27 | – | release of native DMXAA-amine 1 at pH 5 ([1]; construct in buffer, pH 5, 37 °C, within 12 h): 100%; release of native DMXAA-amine 1 at pH 6.5 ([1]; construct in buffer, pH 6.5, 37 °C, over 24 h): ~20%; release of native DMXAA-amine 1 at pH 7.4 ([1]; construct in buffer, pH 7.4, 37 °C, over 24 h): Hardly any release |
| C=C(C)C(=O)NCCCNC(=O)c1ccc(C(Nc2ccc(CC(=O)[O-])c3oc4c(C)c(C)ccc4c(=O)c23)(c2ccc(OC)c(OC)c2)c2ccc(OC)c(OC)c2)cc1.[Li+] [compound 13] | < 1 | 1.2 ± 0.1 | 4.2 ± 0.2 | – |
| C=C(C)C(=O)NCCCNC(=O)c1ccc(C(Nc2ccc(CC(=O)[O-])c3oc4c(C)c(C)ccc4c(=O)c23)(c2ccc(OC)cc2OC)c2ccc(OC)cc2OC)cc1.[Li+] [compound 14] | < 1 | < 1 | < 1 | – |
| C=C(C)C(=O)NCCCNC(=O)c1ccc(C(Nc2ccc(CC(=O)[O-])c3oc4c(C)c(C)ccc4c(=O)c23)(c2ccc(OC)c(C)c2)c2ccc(OC)c(C)c2)cc1.[Li+] [compound 15] | < 1 | 1.9 ± 0.2 | – | – |
| C=C(C)C(=O)NCCCNC(=O)c1cccc(C(Nc2ccc(CC(=O)[O-])c3oc4c(C)c(C)ccc4c(=O)c23)(c2ccc(OC)c(OC)c2)c2ccc(OC)c(OC)c2)c1.[Li+] [compound 16] | < 1 | < 1 | 2.3 ± 0.1 | – |
| C=C(C)C(=O)NCCCNC(=O)c1cccc(C(N[C@H]2C[C@H](O[C@H]3C[C@](O)(C(=O)CO)Cc4c(O)c5c(c(O)c43)C(=O)c3c(OC)cccc3C5=O)O[C@@H](C)[C@H]2O)(c2ccc(OC)cc2)c2ccc(OC)cc2)c1 [compound 17] | – | – | – | half-life at 0.1 mg/mL ([1]; API-trityl linker construct in buffer, pH 5.0, 37 °C, read-out: t1/2 pH 5.0 (converted)): < 1 h; half-life at 0.1 mg/mL ([1]; API-trityl linker construct in buffer, pH 7.4, 37 °C, values for 17 are estimations (doxorubicin precipitation), read-out: t1/2 pH 7.4 (converted)): ~6 h; pKa of the most basic nitrogen [3]: 8.4 |
| C=C(C)C(=O)NCCCNC(=O)c1cccc(C(Nc2ccn([C@@H]3O[C@H](CO)[C@@H](O)C3(F)F)c(=O)n2)(c2ccc(OC)cc2)c2ccc(OC)cc2)c1 [compound 18] | > 72 | – | > 72 | t1/2 pH 3.0 (h) ([1]; API-trityl linker construct in buffer, pH 3.0, 37 °C, listed as gem–trityl 18): 23.2 ± 0.5 h; half-life at 0.1 mg/mL ([1]; sodium phosphate buffer, pH 3, API-trityl linker construct in buffer, pH 3.0, 37 °C, read-out: t1/2 pH 3.0 (converted)): 23.3 h |
